Results: PubChem BioAssay AID330 (DTP/NCI, 2004)
Where “and” joins values, the source holds several entries; their conditions need not be identical. Equal values may be shown once. Inconclusive results and toxic doses are left out. How the source made its calls: active means survival T/C of 150% or more; inactive means T/C below 125% in these data.

Test system: P388 leukemia ip, CD2F1 mice, survival T/C
Experiment: NCI In Vivo Anticancer Drug Screen. Data for tumor model P388 Leukemia (intraperitoneal) in CD2F1 (CDF1) mice
Settings: endpoint: median survival time, higher = longer survival
Method in brief: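 Mice carrying the transplanted tumor received test compound or vehicle. Survival was recorded in each group, and the value is the treated-group measurement divided by that of the vehicle-treated control group.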

[1] = dose: 50.0 mg/kg/injection, schedule: Q01DX009 (ip), vehicle: Klucel (hydroxypropylcellulose) (HPC)
[2] = dose: 100.0 mg/kg/injection, schedule: Q01DX009 (ip), vehicle: Klucel (hydroxypropylcellulose) (HPC)
[3] = dose: 200.0 mg/kg/injection, schedule: Q01DX009 (ip), vehicle: Klucel (hydroxypropylcellulose) (HPC)
[4] = dose: 60.0 mg/kg/injection, schedule: Q01DX005 (ip), vehicle: saline with Tween-80
[5] = dose: 120.0 mg/kg/injection, schedule: Q01DX005 (ip), vehicle: saline with Tween-80
[6] = dose: 240.0 mg/kg/injection, schedule: Q01DX005 (ip), vehicle: saline with Tween-80
[7] = dose: 12.5 mg/kg/injection, schedule: Q01DX005 (ip), vehicle: Klucel (hydroxypropylcellulose) (HPC)
[8] = dose: 50.0 mg/kg/injection, schedule: Q01DX009 (ip), vehicle: saline
[9] = dose: 100.0 mg/kg/injection, schedule: Q01DX009 (ip), vehicle: saline
[10] = dose: 200.0 mg/kg/injection, schedule: Q01DX009 (ip), vehicle: saline
[11] = dose: 12.5 mg/kg/injection, schedule: Q01DX009 (ip), vehicle: Klucel (hydroxypropylcellulose) (HPC)
[12] = dose: 25.0 mg/kg/injection, schedule: Q01DX009 (ip), vehicle: Klucel (hydroxypropylcellulose) (HPC)
[13] = dose: 400.0 mg/kg/injection, schedule: Q01DX009 (ip), vehicle: saline

Measured: T/C

CN1C(=O)C(O)(CC(=O)c2ccccc2)c2ccccc21 (stereo not given)
inactive: dose: 50.0 mg/kg/injection, schedule: Q01DX009 (ip), vehicle: saline with Tween-80 93 % of control | dose: 100.0 mg/kg/injection, schedule: Q01DX009 (ip), vehicle: saline with Tween-80 93 % of control | dose: 200.0 mg/kg/injection, schedule: Q01DX009 (ip), vehicle: saline with Tween-80 90 % of control

Cc1ccc(N2C(c3ccccc3)=CC(=C3C=CC(=O)C=C3)C=C2c2ccccc2)cc1
inactive: dose: 3.75 mg/kg/injection, schedule: Q01DX005 (ip), vehicle: saline with Tween-80 110 % of control | dose: 7.5 mg/kg/injection, schedule: Q01DX005 (ip), vehicle: saline with Tween-80 112 % of control | dose: 15.0 mg/kg/injection, schedule: Q01DX005 (ip), vehicle: saline with Tween-80 103 % of control

CCCCCCCSc1nc2ccc(N=Cc3ccccc3O)cc2s1
inactive: [1] 93 % of control | [2] 103 % of control | [3] 103 % of control

COC(=O)Nc1cnc(C=O)c(C)c1-c1ccc(OC)c(OC)c1OCc1ccccc1
inactive: dose: 12.5 mg/kg/injection, schedule: Q01DX009 (ip), vehicle: other 111 % of control | dose: 25.0 mg/kg/injection, schedule: Q01DX009 (ip), vehicle: other 119 % of control | dose: 50.0 mg/kg/injection, schedule: Q01DX009 (ip), vehicle: other 110 % of control | dose: 100.0 mg/kg/injection, schedule: Q01DX009 (ip), vehicle: other 103 % of control | dose: 200.0 mg/kg/injection, schedule: Q01DX009 (ip), vehicle: other 117 % of control | dose: 400.0 mg/kg/injection, schedule: Q01DX009 (ip), vehicle: other 90 % of control

c1cc(-c2cc3ccc(C4=NCCN4)cc3s2)ccc1C1=NCCN1
inactive: dose: 25.0 mg/kg/injection, schedule: Q04DX003 (ip), vehicle: saline 115 % of control | dose: 50.0 mg/kg/injection, schedule: Q04DX003 (ip), vehicle: saline 115 % of control

NC(=O)NC(=O)C(Cc1ccc(Cl)cc1)c1ccccc1 (stereo not given)
inactive: dose: 30.0 mg/kg/injection, schedule: Q01DX005 (ip), vehicle: saline with Tween-80 96 % of control and 97 % of control | [4] 89 % of control and 94 % of control | [5] 87 % of control and 89 % of control | [6] 88 % of control

CCOc1cccc(/C=N/NC(=O)C(=O)Nc2cccc(C(F)(F)F)c2)c1O
inactive: [7] 98 % of control | dose: 25.0 mg/kg/injection, schedule: Q01DX005 (ip), vehicle: Klucel (hydroxypropylcellulose) (HPC) 95 % of control | dose: 50.0 mg/kg/injection, schedule: Q01DX005 (ip), vehicle: Klucel (hydroxypropylcellulose) (HPC) 89 % of control and 90 % of control

NC(=O)c1ccc(NO)cc1
inactive: [8] 106 % of control | [9] 98 % of control | [10] 94 % of control

COc1cc2ccnc(C3(O)CCN(C)CC3)c2cc1OC
inactive: dose: 6.25 mg/kg/injection, schedule: Q01DX009 (ip), vehicle: Klucel (hydroxypropylcellulose) (HPC) 94 % of control | [11] 98 % of control | [12] 93 % of control | dose: 50.0 mg/kg/injection, schedule: Q01DX001 (ip), vehicle: Klucel (hydroxypropylcellulose) (HPC) 102 % of control | dose: 100.0 mg/kg/injection, schedule: Q01DX001 (ip), vehicle: Klucel (hydroxypropylcellulose) (HPC) 105 % of control | dose: 200.0 mg/kg/injection, schedule: Q01DX001 (ip), vehicle: Klucel (hydroxypropylcellulose) (HPC) 97 % of control

CN1C(=O)c2c(ccc3c2OCO3)[C@@]2(C)C(=O)Cc3cc4c(cc3[C@H]12)OCO4
inactive: dose: 6.25 mg/kg/injection, schedule: Q01DX005 (ip), vehicle: Klucel (hydroxypropylcellulose) (HPC) 89 % of control | [7] 88 % of control

CCN(CC)C(=O)S(=O)(=O)c1ccccc1
inactive: [11] 106 % of control | [12] 101 % of control and 98 % of control | [1] 120 % of control | [2] 111 % of control | [3] 110 % of control

COc1ccc2c(c1OC)C(=O)O/C2=C/c1c(CCN(C)C)cc2c(c1O)OCO2
inactive: dose: 53.0 micrograms/kg/injection, schedule: Q01DX005 (ip), vehicle: Klucel (hydroxypropylcellulose) (HPC) 104 % of control | dose: 105.0 micrograms/kg/injection, schedule: Q01DX005 (ip), vehicle: Klucel (hydroxypropylcellulose) (HPC) 91 % of control | dose: 210.0 micrograms/kg/injection, schedule: Q01DX005 (ip), vehicle: Klucel (hydroxypropylcellulose) (HPC) 96 % of control | dose: 420.0 micrograms/kg/injection, schedule: Q01DX005 (ip), vehicle: Klucel (hydroxypropylcellulose) (HPC) 102 % of control

COC(=O)N1c2ccccc2[C@@H](O)[C@@H]1OC
inactive: [4] 119 % of control | [5] 116 % of control | [6] 100 % of control

CSc1nc2ccc(NC(=O)/C=N/O)cc2s1
inactive: [1] 91 % of control | [2] 92 % of control | [3] 87 % of control and 90 % of control

Cc1cn2ccccc2c[n+]1=O
inactive: dose: 5.0 mg/kg/injection, schedule: Q01DX009 (ip), vehicle: saline sonified 104 % of control | dose: 10.0 mg/kg/injection, schedule: Q01DX009 (ip), vehicle: saline sonified 90 % of control

CCOC(=O)CCC#N
inactive: [8] 99 % of control and 105 % of control | [9] 107 % of control and 108 % of control | [10] 105 % of control and 106 % of control | [13] 100 % of control

CC(C)CC(NC(CCC(=O)O)C(=O)O)C(=O)O (stereo not given)
inactive: dose: 2.25 mg/kg/injection, schedule: Q01DX005 (ip), vehicle: saline 106 % of control | dose: 4.5 mg/kg/injection, schedule: Q01DX005 (ip), vehicle: saline 106 % of control | dose: 9.0 mg/kg/injection, schedule: Q01DX005 (ip), vehicle: saline 96 % of control | dose: 18.0 mg/kg/injection, schedule: Q01DX005 (ip), vehicle: saline 104 % of control

C/C=C1/CN2CCC34c5ccccc5N(C)C23C2CC1C4(C(=O)OC)C(O)O2 (stereo not given)
inactive: dose: 9.25 mg/kg/injection, schedule: Q01DX005 (ip), vehicle: saline + Tween-80 + alcohol 114 % of control | dose: 18.5 mg/kg/injection, schedule: Q01DX005 (ip), vehicle: saline + Tween-80 + alcohol 93 % of control | dose: 37.0 mg/kg/injection, schedule: Q01DX005 (ip), vehicle: saline + Tween-80 + alcohol 100 % of control | dose: 74.0 mg/kg/injection, schedule: Q01DX005 (ip), vehicle: saline + Tween-80 + alcohol 100 % of control

CC(=O)N/N=C(/C(=O)O)c1ccccc1
inactive: dose: 100.0 mg/kg/injection, schedule: Q04DX002 (ip), vehicle: Klucel (hydroxypropylcellulose) (HPC) 98 % of control | dose: 200.0 mg/kg/injection, schedule: Q04DX002 (ip), vehicle: Klucel (hydroxypropylcellulose) (HPC) 99 % of control | dose: 400.0 mg/kg/injection, schedule: Q04DX002 (ip), vehicle: Klucel (hydroxypropylcellulose) (HPC) 95 % of control

NC(=S)c1cccc(/C=N/Nc2ccccc2)n1
inactive: dose: 100.0 mg/kg/injection, schedule: Q04DX003 (ip), vehicle: Klucel (hydroxypropylcellulose) (HPC) 101 % of control | dose: 200.0 mg/kg/injection, schedule: Q04DX003 (ip), vehicle: Klucel (hydroxypropylcellulose) (HPC) 99 % of control | dose: 400.0 mg/kg/injection, schedule: Q04DX003 (ip), vehicle: Klucel (hydroxypropylcellulose) (HPC) 97 % of control

CCCCCCC(=O)CC1(C(=O)OC)NC(=S)NC(=O)C1C#N (stereo not given)
inactive: dose: 60.0 mg/kg/injection, schedule: Q01DX005 (ip), vehicle: Klucel (hydroxypropylcellulose) (HPC) 100 % of control | dose: 120.0 mg/kg/injection, schedule: Q01DX005 (ip), vehicle: Klucel (hydroxypropylcellulose) (HPC) 103 % of control | dose: 240.0 mg/kg/injection, schedule: Q01DX005 (ip), vehicle: Klucel (hydroxypropylcellulose) (HPC) 97 % of control

O=C(O)C(CS(=O)(=O)O)Nc1ncnc2nc[nH]c12 (stereo not given)
inactive: [9] 100 % of control | [10] 100 % of control | [13] 109 % of control

C[C@]12CC[C@H]3[C@@H](CC[C@H]4N(CCCl)CCC[C@]34C)[C@@H]1CC[C@@H]2O
inactive: dose: 25.0 mg/kg/injection, schedule: Q01DX001 (ip), vehicle: saline 108 % of control

CC1(C)CC(=O)CC(C(Cl)(Cl)Cl)O1 (stereo not given)
inactive: dose: 50.0 mg/kg/injection, schedule: Q01DX005 (ip), vehicle: saline with Tween-80 99 % of control | dose: 100.0 mg/kg/injection, schedule: Q01DX005 (ip), vehicle: saline with Tween-80 100 % of control | dose: 200.0 mg/kg/injection, schedule: Q01DX005 (ip), vehicle: saline with Tween-80 98 % of control
